Tests used:
[1] = target: T1, hOAT2A (Homo sapiens, UniProt Q9Y694); test: 3H-PAH uptake in EcR293 cells stably containing pIND(sp1)-hOAT2A, ponasterone induced; conditions: EcR293, 1.25 μg/ml ponasterone for 24 hours
T1 sequence (Q9Y694 1-546 isoform Q9Y694-2): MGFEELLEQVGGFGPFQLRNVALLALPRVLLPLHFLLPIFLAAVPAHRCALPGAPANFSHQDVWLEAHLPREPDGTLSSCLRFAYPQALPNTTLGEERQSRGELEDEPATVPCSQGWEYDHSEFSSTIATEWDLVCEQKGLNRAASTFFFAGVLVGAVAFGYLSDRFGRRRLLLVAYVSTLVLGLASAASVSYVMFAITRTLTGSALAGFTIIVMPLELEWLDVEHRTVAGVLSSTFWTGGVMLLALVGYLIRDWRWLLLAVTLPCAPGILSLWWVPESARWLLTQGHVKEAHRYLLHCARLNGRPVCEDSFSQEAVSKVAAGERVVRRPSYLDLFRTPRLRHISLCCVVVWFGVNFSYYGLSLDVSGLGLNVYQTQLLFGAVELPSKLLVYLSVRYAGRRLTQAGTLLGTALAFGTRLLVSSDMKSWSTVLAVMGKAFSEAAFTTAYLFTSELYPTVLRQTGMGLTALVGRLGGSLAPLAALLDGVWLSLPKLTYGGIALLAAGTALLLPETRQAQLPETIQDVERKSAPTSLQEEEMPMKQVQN
Excerpt: Vector pIND(sp1) (Invitrogen) contains the ecdysone-inducible promoter (EcRE). […] After cloning, the vectors were separately transfected into cell line EcR293 (Invitrogen). […] The pVgRXR vector constitutively expresses the ecdysone receptor and the retinoid X receptor (RXR). The ecdysone receptor and RXR form a heterodimer which, upon activation by the hormone ecdysone, binds to a promoter containing the EcRE. The pVgRXR vector was maintained within the EcR293 cell line by selection with 400 μg/ml zeocin. The pIND(sp1)-hOAT plasmids contain a neomycin resistance marker, and cells stably integrating the plasmids were selected for by culturing the cells in media supplemented with 400 μg/ml G418. After two weeks of selection, individual colonies appeared and were isolated and expanded. […] The cells were then subjected to standard transport assays.
Expression of hOAT1 at high levels can be easily achieved by inducing with ponasterone for twenty-four (24) hours.

[2] = target: T1, hOAT2A; test: Competition assay of 3H-PAH uptake in EcR293/OAT2A cells; assay type: cell-based; set-up: Isolation of Full-length Human OAT2A and OAT2B cDNA; expressed in transfected cells; host or cells: EcR293 (Invitrogen); conditions: 100 μM competitor

Row | Structure (SMILES) | 3H-PAH uptake, ponasterone induced versus non-induced cells (hOAT2A) [1] | effect on uptake of 3H-PAH in EcR293/OAT2A cells [2] | effect on uptake of 3H-PAH in EcR293/OAT2A cells ([2]; listed as sulfobromophthalein)
1 | Nc1ccc(C(=O)NCC(=O)O)cc1 [PAH, p-aminohippurate] | approximately 2.6 fold | – | –
2 | O=C1OC(c2ccc(O)c(S(=O)(=O)O)c2)(c2ccc(O)c(S(=O)(=O)O)c2)c2c(Br)c(Br)c(Br)c(Br)c21 [BSP, sulfobromophthalein] | – | blocked | competed

— patent US6680379B1, “Organic anion transporter genes and proteins” (Metabasis Therapeutics, Inc., priority 1999, dated 2004)
